Experimental data published in patent publication US8362235B2, “Carboxamide compounds and methods for using the same” (Rigel Pharmaceuticals, Inc., priority 2009, dated 2013).

Target: AMPK
Experiment: AMPK activation, enzyme-linked immunosorbent assay
Settings: ELISA
Description: Compounds 1-8 were assayed for their ability to activate AMPK using an enzyme-linked immunosorbent assay.

N#Cc1ccc(CN2CCC(NC(=O)c3ccc(C(=O)N4CCN(Cc5ccc(F)cc5)CC4)cn3)CC2)cc1 [Compound 2, N-(1-(4-cyanobenzyl)piperidin-4-yl)-5-(4-(4-fluorobenzyl)piperazine-1-carbonyl)picolinamide] and N#Cc1ccc(CN2CCC(NC(=O)c3ccc(C(=O)N4CCN(Cc5ccc(C(F)(F)F)cc5)CC4)cn3)CC2)cc1 [Compound 3, N-(1-(4-cyanobenzyl)piperidin-4-yl)-5-(4-(4-(trifluoromethyl)benzyl)piperazine-1-carbonyl)picolinamide] cannot be ordered by EC50: < 500 nM for the first, < 500 nM for the second.

First: N#Cc1ccc(CN2CC[C@H](NC(=O)c3ccc(C(=O)N4CCN(c5ccc(Cl)cc5)CC4)cn3)C2)cc1 [Compound 6, (S)-5-(4-(4-chlorophenyl)piperazine-1-carbonyl)-N-(1-(4-cyanobenzyl)pyrrolidin-3-yl)picolinamide]
Second: O=C(NC1CCN(Cc2ccc(C(F)(F)F)cc2)C1)c1ccc(C(=O)N2CCN(c3ccc(Cl)cc3)CC2)cn1 (stereo not shown) [Compound 8, 5-(4-(4-chlorophenyl)piperazine-1-carbonyl)-N-(1-(4-(trifluoromethyl)benzyl)pyrrolidin-3-yl)picolinamide]
The EC50 of the first is lower: 500 to 1000 nM for the first, 1000 to 5000 nM for the second.
